From ChEMBL document CHEMBL1201862, “PubChem BioAssay data set” (2004)
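96-well plates; 48 h exposure; 5 concentrations. Endpoints by linear interpolation between flanking doses. Not reached: highest tested concentration assigned. GI50: concentration for 50% inhibition of growth.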 Active and inactive are the calls of the source. No stated cut-off is given here; in the data, active = GI50 up to about 1.1 µM and inactive = higher.

How the values were obtained:
Test in all cases: NCI tumour cell line growth inhibition, 48 h
SF-268 = system: SF-268
T47D = system: T47D
SN12C = system: SN12C
SF-295 = system: SF-295
SK-MEL-2 = system: SK-MEL-2
SK-OV-3 = system: SK-OV-3
786-0 = system: 786-0
UACC-62 = system: UACC-62
OVCAR-4 = system: OVCAR-4
COLO 205 = system: COLO 205
MDA-N = system: MDA-N
NCI-H460 = system: NCI-H460
SK-MEL-5 = system: SK-MEL-5
TK-10 = system: TK-10
SK-MEL-28 = system: SK-MEL-28
OVCAR-5 = system: OVCAR-5
RXF 393 = system: RXF 393
SW-620 = system: SW-620
UO-31 = system: UO-31
DU-145 = system: DU-145
Malme-3M = system: Malme-3M
MOLT-4 = system: MOLT-4
ACHN = system: ACHN
MDA-MB-435 = system: MDA-MB-435
MDA-MB-231 = system: MDA-MB-231
U-251 = system: U-251
M14 = system: M14
HCT-15 = system: HCT-15
UACC-257 = system: UACC-257
HT-29 = system: HT-29
A549 = system: A549
HOP-62 = system: HOP-62
K562 = system: K562
Hs-578T = system: Hs-578T
HOP-92 = system: HOP-92
IGROV-1 = system: IGROV-1
NCI/ADR-RES = system: NCI/ADR-RES
RPMI-8226 = system: RPMI-8226
LOX IMVI = system: LOX IMVI
EKVX = system: EKVX
KM12 = system: KM12
PC-3 = system: PC-3
A498 = system: A498
OVCAR-3 = system: OVCAR-3
SR = system: SR
HL-60 = system: HL-60
SNB-19 = system: SNB-19
NCI-H522 = system: NCI-H522
CAKI-1 = system: CAKI-1
NCI-H23 = system: NCI-H23
NCI-H226 = system: NCI-H226
HCC 2998 = system: HCC 2998
SF-539 = system: SF-539
HCT-116 = system: HCT-116
MCF7 = system: MCF7
SNB-75 = system: SNB-75
BT-549 = system: BT-549
CCRF-CEM = system: CCRF-CEM
OVCAR-8 = system: OVCAR-8
SNB-78 = system: SNB-78
KM-20L2 = system: KM-20L2
DMS-273 = system: DMS-273
LXFL 529 = system: LXFL 529
DLD-1 = system: DLD-1

Measured: GI50

O=C(NCCCN1CCN(CCCNC(=O)c2cc(-c3ccccc3)nc3ccccc23)CC1)c1cc(-c2ccccc2)nc2ccccc12
inactive: SF-268 > 38.5 µM | T47D 8.99 µM | SN12C 16.3 µM | SF-295 12.3 µM | SK-MEL-2 16.3 µM | SK-OV-3 16.4 µM | 786-0 7.11 µM | UACC-62 15.9 µM | OVCAR-4 17.8 µM | COLO 205 8.77 µM | MDA-N 5.64 µM | NCI-H460 9.2 µM | SK-MEL-5 2.02 µM | TK-10 27.3 µM | SK-MEL-28 2.05 µM | OVCAR-5 29.6 µM | RXF 393 > 30.9 µM | SW-620 9.71 µM | UO-31 9.18 µM | DU-145 29.8 µM | Malme-3M 1.59 µM | MOLT-4 14 µM | ACHN 15.4 µM | MDA-MB-435 4.15 µM | MDA-MB-231 26.1 µM | U-251 12.5 µM | M14 2.28 µM | UACC-257 2.29 µM | HT-29 3.63 µM | A549 20.6 µM | HOP-62 16.1 µM | K562 5.02 µM | Hs-578T 13.2 µM | HOP-92 5.6 µM | IGROV-1 9.53 µM | NCI/ADR-RES 24.1 µM | RPMI-8226 7.8 µM | LOX IMVI 2.86 µM | EKVX 21.5 µM | KM12 26.3 µM | PC-3 9.62 µM | A498 33.9 µM | OVCAR-3 27.7 µM | SR 3.37 µM | HL-60 > 32.7 µM | SNB-19 14.1 µM | NCI-H522 14 µM | CAKI-1 7.59 µM | NCI-H23 37.3 µM | NCI-H226 27.7 µM | HCC 2998 2.88 µM | SF-539 15.2 µM | HCT-116 23.4 µM | MCF7 9.53 µM | SNB-75 > 38.1 µM | BT-549 17.6 µM | CCRF-CEM 11.6 µM | OVCAR-8 12.2 µM
19.4 µM: HCT-15

Oc1cc(Br)cc2cccnc12
0.697 µM: HCT-15
active: SF-268 0.698 µM | K562 0.82 µM | LOX IMVI 0.908 µM | OVCAR-3 1.05 µM | SR 0.56 µM | HL-60 0.237 µM | MCF7 0.964 µM | CCRF-CEM 0.597 µM
inactive: T47D 3.59 µM | SN12C 2.1 µM | SF-295 1.67 µM | SK-MEL-2 15.6 µM | SK-OV-3 27.6 µM | 786-0 9.51 µM | UACC-62 1.92 µM | OVCAR-4 1.25 µM | COLO 205 11.6 µM | MDA-N 8.28 µM | NCI-H460 1.31 µM | SK-MEL-5 2.38 µM | TK-10 31.5 µM | SK-MEL-28 17.3 µM | OVCAR-5 5.12 µM | RXF 393 2.05 µM | SW-620 2.56 µM | UO-31 1.5 µM | DU-145 9.91 µM | Malme-3M 3.05 µM | MOLT-4 1.35 µM | ACHN 2.63 µM | MDA-MB-435 7.29 µM | MDA-MB-231 2.52 µM | U-251 1.58 µM | M14 1.37 µM | UACC-257 2.6 µM | HT-29 8.22 µM | A549 1.52 µM | HOP-62 5.31 µM | Hs-578T 1.7 µM | HOP-92 5.15 µM | IGROV-1 1.71 µM | NCI/ADR-RES 1.25 µM | RPMI-8226 1.31 µM | EKVX 2.09 µM | KM12 4.7 µM | PC-3 3.17 µM | A498 8.36 µM | SNB-19 15.6 µM | NCI-H522 1.64 µM | CAKI-1 3.15 µM | NCI-H23 2.58 µM | NCI-H226 8.41 µM | HCC 2998 28.2 µM | SF-539 2.16 µM | HCT-116 1.78 µM | SNB-75 15.2 µM | BT-549 5.15 µM | OVCAR-8 1.29 µM

CCOc1ccc(C2Oc3c(cccc3OC)C=C2[N+](=O)[O-])cc1OCC (stereo unspecified)
inactive: SF-268 11.6 µM | T47D 15.7 µM | SN12C 10.8 µM | SF-295 15.3 µM | SK-MEL-2 5.64 µM | SK-OV-3 27.5 µM | 786-0 3.04 µM | UACC-62 5.32 µM | OVCAR-4 10.9 µM | COLO 205 3.68 µM | MDA-N 2.04 µM | NCI-H460 7.28 µM | SK-MEL-5 4.8 µM | TK-10 15.5 µM | SK-MEL-28 2.24 µM | OVCAR-5 9.59 µM | RXF 393 3 µM | SW-620 2.06 µM | UO-31 2.64 µM | DU-145 14.6 µM | Malme-3M 2.3 µM | MOLT-4 4.22 µM | ACHN 3.71 µM | MDA-MB-435 2.82 µM | MDA-MB-231 2.73 µM | U-251 6.49 µM | M14 2.38 µM | UACC-257 3.66 µM | HT-29 2.86 µM | A549 17.3 µM | HOP-62 12.6 µM | K562 1.87 µM | Hs-578T 5.51 µM | HOP-92 12.6 µM | IGROV-1 4.92 µM | NCI/ADR-RES 3.15 µM | RPMI-8226 2.27 µM | LOX IMVI 1.97 µM | EKVX 16.7 µM | KM12 5.43 µM | PC-3 9.33 µM | A498 9.57 µM | OVCAR-3 4.91 µM | SR 1.62 µM | HL-60 2.14 µM | SNB-19 15.2 µM | NCI-H522 1.84 µM | CAKI-1 2.94 µM | NCI-H23 6.67 µM | NCI-H226 21.9 µM | HCC 2998 20.7 µM | SF-539 2.39 µM | HCT-116 1.5 µM | MCF7 3.52 µM | SNB-75 13.8 µM | BT-549 5.96 µM | CCRF-CEM 1.35 µM | OVCAR-8 2 µM
4.86 µM: HCT-15

N#CC1CC2(C1)OCCS2 (stereo unspecified)
> 100 µM: HCT-15
inactive: SF-268 > 100 µM | SN12C > 100 µM | SF-295 > 100 µM | SNB-78 > 100 µM | SK-MEL-2 > 100 µM | 786-0 > 100 µM | UACC-62 > 100 µM | OVCAR-4 > 100 µM | COLO 205 > 100 µM | NCI-H460 > 100 µM | TK-10 > 100 µM | SK-MEL-28 > 100 µM | OVCAR-5 > 100 µM | RXF 393 > 100 µM | SW-620 > 100 µM | UO-31 > 100 µM | KM-20L2 > 100 µM | MOLT-4 > 100 µM | ACHN > 100 µM | U-251 > 100 µM | M14 > 100 µM | UACC-257 > 100 µM | HT-29 > 100 µM | A549 > 100 µM | HOP-62 > 100 µM | K562 > 100 µM | DMS-273 > 100 µM | IGROV-1 > 100 µM | RPMI-8226 > 100 µM | LOX IMVI > 100 µM | EKVX > 100 µM | KM12 > 100 µM | A498 > 100 µM | OVCAR-3 > 100 µM | SR > 100 µM | HL-60 > 100 µM | LXFL 529 > 100 µM | SNB-19 > 100 µM | NCI-H522 > 100 µM | CAKI-1 > 100 µM | NCI-H23 > 100 µM | NCI-H226 > 100 µM | HCC 2998 > 100 µM | SF-539 > 100 µM | HCT-116 > 100 µM | DLD-1 > 100 µM | SNB-75 32.3 µM | CCRF-CEM > 100 µM | OVCAR-8 > 100 µM

O=C(CBr)NCCc1c[nH]c2ccccc12
active: RXF 393 1.09 µM | MOLT-4 0.406 µM | LOX IMVI 0.482 µM | SR 0.344 µM | NCI-H522 0.229 µM | CAKI-1 0.776 µM | NCI-H226 0.655 µM | CCRF-CEM 0.174 µM
1.76 µM: HCT-15
inactive: SF-268 2.16 µM | T47D 1.74 µM | SN12C 1.45 µM | SF-295 13.7 µM | SK-MEL-2 1.92 µM | SK-OV-3 2.67 µM | 786-0 1.4 µM | UACC-62 1.75 µM | OVCAR-4 1.79 µM | COLO 205 1.65 µM | MDA-N 2.02 µM | NCI-H460 6.44 µM | SK-MEL-5 1.17 µM | TK-10 1.86 µM | SK-MEL-28 3.49 µM | OVCAR-5 1.87 µM | SW-620 2.03 µM | UO-31 1.72 µM | DU-145 2.07 µM | Malme-3M 2.94 µM | ACHN 1.73 µM | MDA-MB-435 1.52 µM | MDA-MB-231 2.23 µM | U-251 1.87 µM | M14 1.66 µM | UACC-257 3.01 µM | HT-29 1.83 µM | A549 2.14 µM | HOP-62 1.94 µM | K562 1.44 µM | Hs-578T 5.14 µM | HOP-92 2.29 µM | IGROV-1 1.83 µM | NCI/ADR-RES 2.11 µM | RPMI-8226 1.97 µM | EKVX 1.79 µM | KM12 1.93 µM | PC-3 1.99 µM | A498 19 µM | OVCAR-3 1.92 µM | HL-60 1.7 µM | SNB-19 6.17 µM | NCI-H23 1.46 µM | HCC 2998 9.95 µM | SF-539 1.81 µM | HCT-116 1.65 µM | MCF7 2 µM | SNB-75 1.65 µM | BT-549 1.77 µM | OVCAR-8 3.33 µM
